Results from US10858360B2, “Tricyclic gyrase inhibitors” (priority 2011, dated 2020).
Values after ≈ are worked out from the molar mass of the structure shown.

What was measured:
E. coli ATCC 25922 = experiment: MIC, E. coli ATCC 25922; assay type: cell-based; details: Alamar Blue read after overnight incubation at 35° C.; for MIC: Escherichia coli, ATCC25922, E. coli; for MIC Ec: E. coli
S. aureus ATCC 13709 = experiment: MIC, S. aureus ATCC 13709 (Alamar Blue broth microdilution); assay type: cell-based; details: Alamar Blue read after overnight incubation at 35° C.; for MIC: Staphylococcus aureus, ATCC13709, S. aureus; for MIC Sa: S. aureus

Compound | MIC (E. coli ATCC 25922) [µg/mL] | MIC (S. aureus ATCC 13709) [µg/mL] | MIC Ec (E. coli ATCC 25922) [µg/mL] | MIC Sa (S. aureus ATCC 13709) [µg/mL]
CNc1cc(F)cc2c1[nH]c1nc(Oc3cnc4cccnc4c3)nc(N3CC4CC4(N)C3)c12 (stereo not shown) [4.036] | ≤ 0.5 | ≤ 0.5 | – | –
CNc1cc(F)cc2c1[nH]c1nc(Oc3cnc4cccnc4c3)nc(N3C[C@H](N)C4(CC4)C3)c12 [4.038] | ≤ 0.5 | ≤ 0.5 | – | –
CNc1cc(F)cc2c1[nH]c1nc(Oc3cnc4cccnc4c3)nc(N3C[C@@H]4[C@H](C3)[C@@]4(N)C(N)=O)c12 [4.039] | 2 (≈ 4 µM) | ≤ 0.5 | – | –
CNc1cc(F)cc2c1[nH]c1nc(Oc3cnc4cccnc4c3)nc(N3CC[C@]4(C[C@@H]4N)C3)c12 [4.040] | ≤ 0.5 | ≤ 0.5 | – | –
CNc1cc(F)cc2c1[nH]c1nc(Oc3cnc4cccnc4c3)nc(N3CC[C@@]4(C[C@H]4N)C3)c12 [4.041] | 1 (≈ 2.13 µM) | ≤ 0.5 | – | –
CNc1cc(F)cc2c1[nH]c1nc(Oc3cnc4cccnc4c3)nc(N3CC4(CC4N)C3)c12 (stereo not shown) [4.042] | – | – | ≤0.5 | ≤0.5
CNc1cc(F)cc2c1[nH]c1nc(Oc3cnc4cccnc4c3)nc(N3CC4[C@H](C[C@H]4N)C3)c12 (stereo partly shown) [4.043] | ≤ 0.5 | ≤ 0.5 | – | –
CNc1cc(F)cc2c1[nH]c1nc(Oc3cnc4cccnc4c3)nc(N3CC4CCN[C@H]4C3)c12 (stereo partly shown) [4.044] | ≤ 0.5 | ≤ 0.5 | – | –
CNc1cc(F)cc2c1[nH]c1nc(Oc3cnc4cccnc4c3)nc(N3CC4C[C@@H](N)C[C@H]4C3)c12 (stereo partly shown) [4.046] | 1 (≈ 2.06 µM) | ≤ 0.5 | – | –
CNc1cc(F)cc2c1[nH]c1nc(Oc3cnc4cccnc4c3)nc(N3CC4CC[C@@H](N)[C@H]4C3)c12 (stereo partly shown) [4.047] | ≤ 0.5 | ≤ 0.5 | – | –
CNc1cc(F)cc2c1[nH]c1nc(Oc3cnc4cccnc4c3)nc(N3CC4NCCOC4C3)c12 (stereo not shown) [4.048] | – | – | 1 (≈ 2.06 µM) | ≤0.5
CNc1cc(F)cc2c1[nH]c1nc(Oc3cncc(C#N)c3)nc(N3CC4C(N)C4C3)c12 (stereo not shown) [4.050] | ≤ 0.5 | ≤ 0.5 | – | –
CNc1cc(F)cc2c1[nH]c1nc(Oc3cncc(C#N)c3)nc(N3CC(N)C4(CC4)C3)c12 (stereo not shown) [4.051] | 2 (≈ 4.5 µM) | ≤ 0.5 | – | –
CNc1cc(F)cc2c1[nH]c1nc(Oc3cncc(C#N)c3)nc(N3CCC4(CC4N)C3)c12 (stereo not shown) [4.052] | ≤ 0.5 | ≤ 0.5 | – | –
CNc1cc(F)cc2c1[nH]c1nc(Oc3cncc(C#N)c3)nc(N3CC4CC(N)C4C3)c12 (stereo not shown) [4.053] | – | – | ≤0.5 | ≤0.5
CNc1cc(F)cc2c1[nH]c1nc(Oc3cncc(C#N)c3)nc(N3CC4(CCC4N)C3)c12 (stereo not shown) [4.054] | – | – | ≤0.5 | ≤0.5
CNc1cc(F)cc2c1[nH]c1nc(Oc3cncc(F)c3)nc(N3CC4C(N)C4C3)c12 (stereo not shown) [4.055] | ≤ 0.5 | ≤ 0.5 | – | –
CNc1cc(F)cc2c1[nH]c1nc(Oc3cncc(F)c3)nc(N3CC(N)C4(CC4)C3)c12 (stereo not shown) [4.056] | ≤ 0.5 | ≤ 0.5 | – | –
CNc1cc(F)cc2c1[nH]c1nc(Oc3cncc(F)c3)nc(N3CC4CNC(C4)C3)c12 (stereo not shown) [4.058] | ≤ 0.5 | ≤ 0.5 | – | –
CNc1cc(F)cc2c1[nH]c1nc(Oc3cncc(F)c3)nc(N3CC4CC(N)C4C3)c12 (stereo not shown) [4.060] | – | – | ≤0.5 | ≤0.5
CNc1cc(F)cc2c1[nH]c1nc(Oc3cncc(F)c3)nc(N3CC4(CCC4N)C3)c12 (stereo not shown) [4.061] | – | – | ≤0.5 | ≤0.5
CNc1cc(F)cc2c1[nH]c1nc(Oc3cncc(F)c3)nc(N3CCC4(C[C@H]4N)C3)c12 (stereo partly shown) [4.062] | ≤ 0.5 | ≤ 0.5 | – | –
CNc1cc(F)cc2c1[nH]c1nc(Oc3cncc(F)c3)nc(N3CC4CC(N)C3C4)c12 (stereo not shown) [4.063] | – | – | 8 (≈ 18.3 µM) | 1 (≈ 2.29 µM)
CNc1cc(F)cc2c1[nH]c1nc(Oc3cnc(C)nc3)nc(N3CC(N)C4(CC4)C3)c12 (stereo not shown) [4.065] | – | – | ≤0.5 | ≤0.5
CNc1cc(F)cc2c1[nH]c1nc(Oc3cnc(C)nc3)nc(N3CC4CNC4C3)c12 (stereo not shown) [4.067] | ≤ 0.5 | ≤ 0.5 | – | –
CNc1cc(F)cc2c1[nH]c1nc(Oc3cnc(C)nc3)nc(N3CC(N)C4(CC4)C3)c12 (stereo not shown) [4.068] | – | – | ≤0.5 | ≤0.5
CNc1cc(F)cc2c1[nH]c1nc(Oc3cnc(C)nc3)nc(N3CC[C@@H](N)C3)c12 [4.070] | 1 (≈ 2.45 µM) | ≤ 0.5 | – | –

Compound | MIC (E. coli ATCC 25922) [µg/mL] | MIC (S. aureus ATCC 13709) [µg/mL] | MIC Ec (E. coli ATCC 25922) [µg/mL] | MIC Sa (S. aureus ATCC 13709) [µg/mL]
CNc1cc(F)cc2c1[nH]c1nc(Oc3cnc(C)nc3)nc(N3CCCC(N)CC3)c12 (stereo not shown) [4.071] | 2 (≈ 4.58 µM) | ≤ 0.5 | – | –
CNc1cc(F)cc2c1[nH]c1nc(Oc3cnc(C)nc3)nc(N3CC4CNC(C4)C3)c12 (stereo not shown) [4.072] | 1 (≈ 2.3 µM) | ≤ 0.5 | – | –
CNc1cc(F)cc2c1[nH]c1nc(Oc3cnc(C)nc3)nc(N3CC4CCC(N)C4C3)c12 (stereo not shown) [4.075] | – | – | ≤0.5 | ≤0.5
CNc1cc(F)cc2c1[nH]c1nc(Oc3cnc(C)nc3)nc(N3CCCC(N)C3)c12 (stereo not shown) [4.077] | – | – | ≤0.5 | ≤0.5
CNc1cc(F)cc2c1[nH]c1nc(Oc3cnc(C)nc3)nc(N3CC4C(C3)C4NC(=O)CN)c12 (stereo not shown) [4.078] | – | – | 8 (≈ 16.8 µM) | ≤0.5
CNc1cc(F)cc2c1[nH]c1nc(Oc3cnc(C)nc3)nc(N3CC(C4(N)CC4)C3)c12 [4.080] | – | – | 1 (≈ 2.3 µM) | ≤0.5
CNc1cc(F)cc2c1[nH]c1nc(Oc3cnc(C)nc3)nc(N3CCC4CNC4C3)c12 (stereo not shown) [4.081] | – | – | 1 (≈ 2.3 µM) | ≤0.5
CNc1cc(F)cc2c1[nH]c1nc(Oc3cnc(C)nc3)nc(N3CC4CNCCC43)c12 (stereo not shown) [4.082] | – | – | 8 (≈ 18.4 µM) | 1 (≈ 2.3 µM)
CNc1cc(F)cc2c1[nH]c1nc(Oc3cnc(C)nc3)nc(N3CCC(C4(N)CC4)C3)c12 (stereo not shown) [4.083] | – | – | ≤0.5 | ≤0.5
CNc1cc(F)cc2c1[nH]c1nc(Oc3cnc(C)nc3)nc(N3CC(NC(=O)CN)C4(CC4)C3)c12 (stereo not shown) [4.085] | – | – | 2 (≈ 4.07 µM) | ≤0.5
CNc1cc(F)cc2c1[nH]c1nc(Oc3cnc(C)nc3)nc(N3CC4CCCC(N)C4C3)c12 (stereo not shown) [4.086] | – | – | 2 (≈ 4.32 µM) | ≤0.5
CNc1cc(F)cc2c1[nH]c1nc(Oc3cnc(C)nc3)nc(N3CC(C)C(CN)C3)c12 (stereo not shown) [4.087] | – | – | 1 (≈ 2.29 µM) | ≤0.5
CNc1cc(F)cc2c1[nH]c1nc(Oc3cnc(C)nc3)nc(N3CCCC(C)(N)C3)c12 (stereo not shown) [4.088] | – | – | 1 (≈ 2.29 µM) | ≤0.5
CNc1cc(F)cc2c1[nH]c1nc(Oc3cnc(C)nc3)nc(N3CC(NCCO)C4(CC4)C3)c12 (stereo not shown) [4.089] | – | – | ≤0.5 | ≤0.5
CNc1cc(F)cc2c1[nH]c1nc(Oc3cnc(C)nc3)nc(N3CC(NCCN)C4(CC4)C3)c12 (stereo not shown) [4.090] | – | – | 4 (≈ 8.38 µM) | ≤0.5
CNc1cc(F)cc2c1[nH]c1nc(Oc3cnc(C)nc3)nc(N3C4CCC3CC(N)C4)c12 (stereo not shown) [4.091] | – | – | 1 (≈ 2.23 µM) | ≤0.5
CNc1cc(F)cc2c1[nH]c1nc(Oc3cnc(C)nc3)nc(N3CC4CCC(N)CC4C3)c12 (stereo not shown) [4.092] | – | – | 2 (≈ 4.32 µM) | ≤0.5
CNc1cc(F)cc2c1[nH]c1nc(Oc3cnc(C)nc3)nc(N3CC4CCC(N)CC4C3)c12 (stereo not shown) [4.093] | – | – | 4 (≈ 8.65 µM) | ≤0.5
CNc1cc(F)cc2c1[nH]c1nc(Oc3cnc(C)nc3)nc(N3CC4CCNC4C3)c12 (stereo not shown) [4.094] | – | – | ≤0.5 | ≤0.5
CNc1cc(F)cc2c1[nH]c1nc(Oc3cnc(C)nc3)nc(N3C4CCC3C(N)C4)c12 (stereo not shown) [4.095] | – | – | 8 (≈ 18.4 µM) | 2 (≈ 4.6 µM)
CNc1cc(F)cc2c1[nH]c1nc(Oc3cnc(C)nc3)nc(N3CC4(CC4N)C3)c12 (stereo not shown) [4.096] | – | – | ≤0.5 | ≤0.5
CNc1cc(F)cc2c1[nH]c1nc(Oc3cnc(C)nc3)nc(N3CC4C(N)CC(C)(C)C4C3)c12 (stereo not shown) [4.097] | – | – | 2 (≈ 4.2 µM) | ≤0.5
CNc1cc(F)cc2c1[nH]c1nc(Oc3cnc(C)nc3)nc(N3CC4CC4(CN)C3)c12 (stereo not shown) [4.098] | – | – | 1 (≈ 2.3 µM) | ≤0.5
CNc1cc(F)cc2c1[nH]c1nc(Oc3cnc(C)nc3)nc(N3C[C@H]4CCC(N)[C@@]4(C)C3)c12 (stereo partly shown) [4.099] | – | – | 4 (≈ 8.65 µM) | ≤0.5
CNc1cc(F)cc2c1[nH]c1nc(Oc3cnc(C)nc3)nc(N3CC4(CCC4N)C3)c12 (stereo not shown) [4.100] | – | – | ≤0.5 | ≤0.5
CNc1cc(F)cc2c1[nH]c1nc(Oc3cnc(C)nc3)nc(N3CCCC4(CC4N)C3)c12 (stereo not shown) [4.101] | – | – | ≤0.5 | ≤0.5
